The text below walks through data of patent US8063071B2 (GlaxoSmithKline, LLC, priority 2007, dated 2011).

Molecules are shown by their SMILES. Where a name gives a salt, the structure may show the parent alone.

The experiment deals with T1, Recombinant human IKKβ (residues 1-737) (Homo sapiens, UniProt O14920).
T1 construct: Recombinant human IKKβ (residues 1-737); GST (C); made in house
T1 sequence (O14920 1-737): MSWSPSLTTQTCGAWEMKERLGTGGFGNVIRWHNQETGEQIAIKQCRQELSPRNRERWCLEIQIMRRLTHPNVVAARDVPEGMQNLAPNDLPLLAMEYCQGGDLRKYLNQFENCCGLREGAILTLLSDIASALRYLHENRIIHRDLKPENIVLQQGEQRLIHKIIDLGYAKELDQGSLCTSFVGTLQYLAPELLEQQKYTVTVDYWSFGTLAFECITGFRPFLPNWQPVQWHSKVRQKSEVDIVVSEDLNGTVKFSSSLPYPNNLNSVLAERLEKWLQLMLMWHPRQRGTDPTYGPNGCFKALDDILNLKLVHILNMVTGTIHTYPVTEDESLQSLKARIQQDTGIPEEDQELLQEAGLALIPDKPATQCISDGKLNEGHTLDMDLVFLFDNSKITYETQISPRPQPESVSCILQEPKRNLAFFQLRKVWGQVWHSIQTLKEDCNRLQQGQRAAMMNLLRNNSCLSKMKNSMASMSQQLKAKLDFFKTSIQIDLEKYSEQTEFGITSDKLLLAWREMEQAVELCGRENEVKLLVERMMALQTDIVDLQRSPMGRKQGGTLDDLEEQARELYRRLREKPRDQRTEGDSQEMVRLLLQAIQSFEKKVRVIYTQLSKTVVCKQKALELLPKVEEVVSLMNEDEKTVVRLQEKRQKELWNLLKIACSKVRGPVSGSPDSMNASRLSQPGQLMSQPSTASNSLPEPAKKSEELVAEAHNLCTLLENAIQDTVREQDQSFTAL
In words: IKK2 assay (TR-FRET). As to conditions: ATP 1 μM final, read-out: pIC50 against IKK2 (converted). Type of experiment: biochemical. The protocol: Recombinant human IKKβ (residues 1-737) was expressed in baculovirus as a C-terminal GST-tagged fusion protein, and its activity was assessed using a time-resolved fluorescence resonance energy transfer (TR-FRET) assay. Briefly, IKK2 (0.5 nM-5 nM final) diluted in assay buffer (50 mM HEPES, 10 mM MgCl2, 1 mM CHAPS pH 7.4 with 1 mM DTT and 0.01% w/v BSA) was added to wells containing various concentrations of compound or DMSO vehicle (1.7% final). The reaction was initiated by the addition of GST-IB substrate (25 nM final)/ATP (1 μM final), in a total volume of 6 μl. The reaction was incubated for 15 minutes at room temperature, then terminated by the addition of 3 μl of detection reagent in buffer containing 50 mM EDTA (100 mM HEPES pH 7.4, 150 mM NaCl, 50 mM EDTA and 0.01% w/v BSA) containing antiphosphoserine-IB-32/36 monoclonal antibody 12C2 (Cell Signalling Technology, Beverly Mass., USA) labelled with W-1024 europium chelate (Wallac OY, Turku, Finland), and an APC-labelled anti-GST antibody (Prozyme, San Leandro, Calif., USA) was added and the reaction was further incubated for 60 minutes at room temperature. The degree of phosphorylation of GST-IB was measured using a BMG Rubystar plate reader (BMG Labtech, Aylesbury, UK) as a ratio of specific 665 nm energy transfer signal to reference europium 620 nm signal.
For orientation: TR-FRET usually uses a lanthanide donor and a delayed reading to cut background.
In the case of `CCS(=O)(=O)N1CCC(c2c[nH]c3c(C(N)=O)cc(-c4cccc(CN)c4)cc23)CC1` [Example 14, 5-[3-(aminomethyl)phenyl]-3-[1-(ethylsulfonyl)-4-piperidinyl]-1H-indole-7-carboxamide], the IC50 is at most 10 µM. On to `CCS(=O)(=O)N1CCC(c2c[nH]c3c(C(N)=O)cc(-c4cc(C#N)cc(CNCC(F)(F)F)c4)cc23)CC1` [Example 41, 5-(3-cyano-5-{[(2,2,2-trifluoroethyl)amino]methyl}phenyl)-3-[1-(ethylsulfonyl)-4-piperidinyl]-1H-indole-7-carboxamide trifluoroacetate], for which the IC50 was at most 10 µM. Consider `CCS(=O)(=O)N1CCC(c2c[nH]c3c(C(N)=O)cc(-c4cc(CN(C)C)c(OC)c(OC)c4)cc23)CC1` [Example 51, 5-[3-[(dimethylamino)methyl]-4,5-bis(methyloxy)phenyl]-3-[1-(ethylsulfonyl)-4-piperidinyl]-1H-indole-7-carboxamide], for which the IC50 is at most 10 µM. `CCS(=O)(=O)N1CCC(c2c[nH]c3c(C(N)=O)cc(-c4cc(CNC(C)C)c(OC)c(OC)c4)cc23)CC1` [Example 53, 3-[1-(ethylsulfonyl)-4-piperidinyl]-5-[3-{[(1-methylethyl)amino]methyl}-4,5-bis(methyloxy)phenyl]-1H-indole-7-carboxamide]: the IC50 was at most 10 µM. As to `CCS(=O)(=O)N1CCC(c2c[nH]c3c(C(N)=O)cc(-c4cc(CNC)c(OC)c(OC)c4)cc23)CC1` [Example 54], the IC50 is at most 10 µM.

For `CCS(=O)(=O)N1CCC(c2c[nH]c3c(C(N)=O)cc(-c4cc(CNCC(C)(C)C)c(OC)c(OC)c4)cc23)CC1` [Example 55, 5-[3-{[(2,2-dimethylpropyl)amino]methyl}-4,5-bis(methyloxy)phenyl]-3-[1-(ethylsulfonyl)-4-piperidinyl]-1H-indole-7-carboxamide], the IC50 was at most 10 µM.

On to `CCS(=O)(=O)N1CCC(c2c[nH]c3c(C(N)=O)cc(-c4cc(CN(C)CCO)c(OC)c(OC)c4)cc23)CC1` [Example 56, 3-[1-(ethylsulfonyl)-4-piperidinyl]-5-[3-{[(2-hydroxyethyl)(methyl)amino]methyl}-4,5-bis(methyloxy)phenyl]-1H-indole-7-carboxamide], for which the IC50 was at most 10 µM. Take `CCS(=O)(=O)N1CCC(c2c[nH]c3c(C(N)=O)cc(-c4cc(CN5CCCC5)c(OC)c(OC)c4)cc23)CC1` [Example 57, 5-[3,4-bis(methyloxy)-5-(1-pyrrolidinylmethyl)phenyl]-3-[1-(ethylsulfonyl)-4-piperidinyl]-1H-indole-7-carboxamide]: the IC50 was at most 10 µM. In the case of `CCS(=O)(=O)N1CCC(c2c[nH]c3c(C(N)=O)cc(-c4csc(CN5CCCC5CC(C)C)c4)cc23)CC1` (stereo not drawn) [Example 93, 3-[1-(ethylsulfonyl)-4-piperidinyl]-5-(5-{[2-(2-methylpropyl)-1-pyrrolidinyl]methyl}-3-thienyl)-1H-indole-7-carboxamide trifluoroacetate] it was at most 10 µM; in that of `CCS(=O)(=O)N1CCC(c2c[nH]c3c(C(N)=O)cc(-c4ccc(N5CCNCC5)nc4)cc23)CC1` [Example 135, 3-[1-(ethylsulfonyl)-4-piperidinyl]-5-[6-(1-piperazinyl)-3-pyridinyl]-1H-indole-7-carboxamide trifluoroacetate], at most 10 µM.

Consider `CCC(CC)NCc1ccc(-c2cc(C(N)=O)c3[nH]cc(C4CCN(S(=O)(=O)CC)CC4)c3c2)cc1` [Example 142, 5-(4-{[(1-ethylpropyl)amino]methyl}phenyl)-3-[1-(ethylsulfonyl)-4-piperidinyl]-1H-indole-7-carboxamide], for which the IC50 is at most 10 µM. For the compound `CCNCc1ccc(-c2cc(C(N)=O)c3[nH]cc(C4CCN(S(=O)(=O)CC)CC4)c3c2)cc1` [Example 145, 5-{4-[(ethylamino)methyl]phenyl}-3-[1-(ethylsulfonyl)-4-piperidinyl]-1H-indole-7-carboxamide], the IC50 is at most 10 µM. With `CCS(=O)(=O)N1CCC(c2c[nH]c3c(C(N)=O)cc(-c4ccc(CN5CCCC5)cc4)cc23)CC1` [Example 149, 3-[1-(ethylsulfonyl)-4-piperidinyl]-5-[4-(1-pyrrolidinylmethyl)phenyl]-1H-indole-7-carboxamide trifluoroacetate], the IC50 was at most 10 µM.

Take `CCS(=O)(=O)N1CCC(c2c[nH]c3c(C(N)=O)cc(-c4ccc(CN[C@@H](C)CO)cc4)cc23)CC1` [Example 150, 3-[1-(ethylsulfonyl)-4-piperidinyl]-5-[4-({[(1S)-2-hydroxy-1-methylethyl]amino}methyl)phenyl]-1H-indole-7-carboxamide trifluoroacetate]: the IC50 was at most 10 µM. With `CCS(=O)(=O)N1CCC(c2c[nH]c3c(C(N)=O)cc(-c4ccc(CNC[C@@H](C)O)cc4)cc23)CC1` [Example 152, 3-[1-(ethylsulfonyl)-4-piperidinyl]-5-[4-({[(2R)-2-hydroxypropyl]amino}methyl)phenyl]-1H-indole-7-carboxamide trifluoroacetate], the IC50 is at most 10 µM. Turning to `CCS(=O)(=O)N1CCC(c2c[nH]c3c(C(N)=O)cc(-c4ccc(CN[C@H](C)C(C)C)s4)cc23)CC1` [Example 183, 5-[5-({[(1R)-1,2-dimethylpropyl]amino}methyl)-2-thienyl]-3-[1-(ethylsulfonyl)-4-piperidinyl]-1H-indole-7-carboxamide], the IC50 is at most 10 µM. In the case of `CCS(=O)(=O)N1CCC(c2c[nH]c3c(C(N)=O)cc(-c4ccc(CNCCC(C)(C)C)s4)cc23)CC1` [Example 199, 5-(5-{[(3,3-dimethylbutyl)amino]methyl}-2-thienyl)-3-[1-(ethylsulfonyl)-4-piperidinyl]-1H-indole-7-carboxamide], the IC50 was at most 10 µM.

With `CCN(C)c1ccc(-c2cc(C(N)=O)c3[nH]cc(C4CCN(S(=O)(=O)CC)CC4)c3c2)cn1` [Example 225, 5-{6-[ethyl(methyl)amino]-3-pyridinyl}-3-[1-(ethylsulfonyl)-4-piperidinyl]-1H-indole-7-carboxamide trifluoroacetate], the IC50 was at most 10 µM. Turning to `CCS(=O)(=O)N1CCC(c2c[nH]c3c(C(N)=O)cc(-c4ccc(N(C)C)nc4)cc23)CC1` [Example 226, 5-[6-(dimethylamino)-3-pyridinyl]-3-[1-(ethylsulfonyl)-4-piperidinyl]-1H-indole-7-carboxamide trifluoroacetate], the IC50 is at most 10 µM. In the case of `CCS(=O)(=O)N1CCC(c2c[nH]c3c(C(N)=O)cc(-c4ccc(NC(C)C)nc4)cc23)CC1` [Example 228, 3-[1-(ethylsulfonyl)-4-piperidinyl]-5-{6-[(1-methylethyl)amino]-3-pyridinyl}-1H-indole-7-carboxamide trifluoroacetate] it was at most 10 µM. On to `CCS(=O)(=O)N1CCC(c2c[nH]c3c(C(N)=O)cc(-c4ccc(N5CCOCC5)nc4)cc23)CC1` [Example 229, 3-[1-(ethylsulfonyl)-4-piperidinyl]-5-[6-(4-morpholinyl)-3-pyridinyl]-1H-indole-7-carboxamide], for which the IC50 was at most 10 µM.

On to `CCS(=O)(=O)N1CCC(c2c[nH]c3c(C(N)=O)cc(-c4cnn(CCN(C)C)c4)cc23)CC1` [Example 252, 5-{1-[2-(dimethylamino)ethyl]-1H-pyrazol-4-yl}-3-[1-(ethylsulfonyl)-4-piperidinyl]-1H-indole-7-carboxamide], for which the IC50 was at most 10 µM. With `CCS(=O)(=O)N1CCC(c2c[nH]c3c(C(N)=O)cc(-c4ccc(OC)c(CN(C)C)c4)cc23)CC1` [Example 263, 5-[3-[(dimethylamino)methyl]-4-(methyloxy)phenyl]-3-[1-(ethylsulfonyl)-4-piperidinyl]-1H-indole-7-carboxamide trifluoroacetate], the IC50 is at most 10 µM. Take `CCS(=O)(=O)N1CCC(c2c[nH]c3c(C(N)=O)cc(-c4ccc(OC)c(CN5CCOCC5)c4)cc23)CC1` [Example 264, 3-[1-(ethylsulfonyl)-4-piperidinyl]-5-[4-(methyloxy)-3-(4-morpholinylmethyl)phenyl]-1H-indole-7-carboxamide trifluoroacetate]: the IC50 was at most 10 µM.
